# Test results reported in ChEMBL document CHEMBL1201862, “PubChem BioAssay data set” (2004).
#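 Where inhibition never reached the appropriate level, the endpoint shown equals the highest concentration tested. Otherwise, values were interpolated linearly from a five-concentration, 48-hour dose response in 96-well plates. Abbreviation: GI50, concentration required for 50% inhibition of growth.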 Active and inactive are the calls of the source. Rule as the data show it: active = GI50 up to about 1.1 µM and inactive = higher.
# Experiments:
# Test in all cases: NCI tumour cell line growth inhibition, 48 h
# A498 = tested on: A498
# BT-549 = tested on: BT-549
# HCT-15 = tested on: HCT-15
# HOP-62 = tested on: HOP-62
# HOP-92 = tested on: HOP-92
# HT-29 = tested on: HT-29
# KM12 = tested on: KM12
# LOX IMVI = tested on: LOX IMVI
# MDA-MB-231 = tested on: MDA-MB-231
# MDA-N = tested on: MDA-N
# Malme-3M = tested on: Malme-3M
# NCI-H23 = tested on: NCI-H23
# OVCAR-5 = tested on: OVCAR-5
# SK-MEL-2 = tested on: SK-MEL-2
# SN12C = tested on: SN12C
# SR = tested on: SR
# TK-10 = tested on: TK-10
# U-251 = tested on: U-251
# HCC 2998 = tested on: HCC 2998
# NCI-H460 = tested on: NCI-H460
Structure (SMILES),GI50 (A498),GI50 (BT-549),GI50 (HCT-15) [µM],GI50 (HOP-62),GI50 (HOP-92),GI50 (HT-29),GI50 (KM12),GI50 (LOX IMVI),GI50 (MDA-MB-231),GI50 (MDA-N),GI50 (Malme-3M),GI50 (NCI-H23),GI50 (OVCAR-5),GI50 (SK-MEL-2),GI50 (SN12C),GI50 (SR),GI50 (TK-10),GI50 (U-251),GI50 (HCC 2998),GI50 (NCI-H460)
CCOC(=O)c1c(C)nc2c(c1-c1cn(-c3ccccc3)nc1-c1ccccc1)C(=O)c1ccccc1-2,> 100 µM (inactive),> 100 µM (inactive),> 100,> 100 µM (inactive),> 100 µM (inactive),13.8 µM (inactive),0.337 µM (active),> 100 µM (inactive),> 100 µM (inactive),> 100 µM (inactive),> 100 µM (inactive),> 100 µM (inactive),> 100 µM (inactive),> 100 µM (inactive),> 100 µM (inactive),> 10 µM (inactive),> 100 µM (inactive),> 100 µM (inactive),–,–
O=C1c2ccccc2C(=O)N1CCCC(=O)n1cc(F)c(=O)[nH]c1=O,4.69 µM (inactive),> 100 µM (inactive),8.41,8.26 µM (inactive),> 21.4 µM (inactive),4.54 µM (inactive),6.73 µM (inactive),6.18 µM (inactive),> 100 µM (inactive),16.1 µM (inactive),27.9 µM (inactive),11.9 µM (inactive),–,> 100 µM (inactive),> 26.1 µM (inactive),5.53 µM (inactive),> 41.2 µM (inactive),> 100 µM (inactive),0.82 µM (active),2.68 µM (inactive)
CN(C)/N=N/c1nc2c(c(=O)n(C)c(=O)n2C)n1C,> 100 µM (inactive),> 100 µM (inactive),> 100,> 100 µM (inactive),–,> 100 µM (inactive),> 100 µM (inactive),> 100 µM (inactive),> 100 µM (inactive),> 100 µM (inactive),> 100 µM (inactive),–,> 100 µM (inactive),> 100 µM (inactive),> 100 µM (inactive),4.04 µM (inactive),> 100 µM (inactive),> 100 µM (inactive),> 100 µM (inactive),> 100 µM (inactive)
Cc1sc(Nc2ccccc2[N+](=O)[O-])c(C#N)c1C,29.4 µM (inactive),19.5 µM (inactive),23,20.8 µM (inactive),18.7 µM (inactive),–,> 100 µM (inactive),–,19.6 µM (inactive),> 100 µM (inactive),0.0556 µM (active),13.9 µM (inactive),23 µM (inactive),–,40.3 µM (inactive),> 100 µM (inactive),–,21.3 µM (inactive),> 100 µM (inactive),> 100 µM (inactive)
COC1=C(OC)C(=O)C(Cc2c(C)nc3sc(C)cn23)=C(C)C1=O,33 µM (inactive),16.9 µM (inactive),26.1,18.5 µM (inactive),–,20.2 µM (inactive),26.3 µM (inactive),17.4 µM (inactive),14.7 µM (inactive),18 µM (inactive),14.9 µM (inactive),15 µM (inactive),22.2 µM (inactive),17.4 µM (inactive),16.9 µM (inactive),17.9 µM (inactive),18.5 µM (inactive),19.8 µM (inactive),29 µM (inactive),20 µM (inactive)
COC(=O)c1cc(C(=CCC[C@H]2CC[C@@]3(C)C(CCC4C3CC[C@@]3(C)C4CC[C@@H]3C(C)CCCC(C)C)C2)c2cc(Cl)c(OC(=O)c3ccccc3)c(C(=O)OC)c2)cc(Cl)c1OC(=O)c1ccccc1 (stereo partly specified),–,> 10 µM (inactive),> 10,> 10 µM (inactive),> 10 µM (inactive),> 10 µM (inactive),> 10 µM (inactive),> 10 µM (inactive),> 10 µM (inactive),> 10 µM (inactive),> 10 µM (inactive),> 10 µM (inactive),> 10 µM (inactive),> 10 µM (inactive),> 10 µM (inactive),> 10 µM (inactive),> 10 µM (inactive),> 10 µM (inactive),> 10 µM (inactive),> 10 µM (inactive)
O=C1OC(c2ccc(Cl)cc2)=N/C1=C\c1ccccc1,–,> 100 µM (inactive),> 100,> 100 µM (inactive),> 100 µM (inactive),> 100 µM (inactive),> 100 µM (inactive),> 100 µM (inactive),> 100 µM (inactive),> 100 µM (inactive),–,> 100 µM (inactive),> 100 µM (inactive),> 100 µM (inactive),> 100 µM (inactive),> 100 µM (inactive),> 100 µM (inactive),> 100 µM (inactive),> 100 µM (inactive),> 100 µM (inactive)
CN1CCN(C(=S)N2CCN(C)CC2)CC1,5.62 µM (inactive),> 100 µM (inactive),–,> 100 µM (inactive),> 100 µM (inactive),1.73 µM (inactive),> 100 µM (inactive),> 100 µM (inactive),> 100 µM (inactive),> 26.6 µM (inactive),> 100 µM (inactive),> 32.1 µM (inactive),> 100 µM (inactive),> 100 µM (inactive),> 100 µM (inactive),0.213 µM (active),> 19.7 µM (inactive),> 100 µM (inactive),> 61.5 µM (inactive),5.35 µM (inactive)
